According to article PMC3765866, “Identification of novel PTPRQ phosphatase inhibitors based on the virtual screening with docking simulations” (Theoretical Biology & Medical Modelling, 2013):
Where two headings read alike, the source gives them in different places.

Key:
Assay type in all cases: biochemical
[1] = target: T1, PTPRQ (Homo sapiens, UniProt Q9UMZ3); test: PTPRQ enzyme inhibition assay monitoring hydrolysis of pNPP; conditions: for inhibition at 100 µM: inhibitor 100 μM, duplicates
T1 construct: The catalytic domain of PTPRQ (PTPRQ-C, residues 2661–2948) was subcloned into pET28a; His tag; made in house; host or cells: Escherichia coli BL21 (DE3)
T1 sequence (Q9UMZ3 2015-2302 limits assumed): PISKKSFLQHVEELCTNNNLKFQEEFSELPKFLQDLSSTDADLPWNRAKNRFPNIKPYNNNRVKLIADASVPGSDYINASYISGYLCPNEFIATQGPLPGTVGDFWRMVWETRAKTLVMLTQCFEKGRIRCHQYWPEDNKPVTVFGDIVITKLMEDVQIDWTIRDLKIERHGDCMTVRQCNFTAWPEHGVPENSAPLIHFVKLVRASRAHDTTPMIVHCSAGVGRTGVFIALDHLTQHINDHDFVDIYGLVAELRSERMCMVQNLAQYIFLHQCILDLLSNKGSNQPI
Procedure: The catalytic domain of PTPRQ (PTPRQ-C, residues 2661–2948) was subcloned into pET28a and overexpressed using Escherichia coli BL21 (DE3) strain. Cells were grown at 291 K after induction with 0.1 mM IPTG for 20 hours. His-tagged PTPRQ-C was purified by nickel-affinity chromatography. 150 compounds selected from the precedent virtual screening were evaluated for their in vitro inhibitory activity against the recombinant human PTPRQ. Initial inhibitor screening was performed by monitoring the extent of hydrolysis of p-Nitrophenyl Phosphate (pNPP) with a […] assay. The purified PTPRQ-C (1.5 μM), pNPP (5 mM), and a candidate inhibitor were incubated in the reaction mixture containing 50 mM Bis-Tris (pH 6.0), 2 mM dithiothreitol for 60 minutes. This enzymatic reaction was stopped with the addition of sodium hydroxide (0.5 M). The phosphatase activities were then checked by the absorbance changes due to the hydrolysis of the substrate at 405 nm. IC50 values of the inhibitors were determined from direct regression curve analysis.

[2] = target: T1, PTPRQ; test: Inhibition of hydrolysis of PI(3,4,5)P3 by PTPRQ (malachite green); conditions: 1.5 μM PTPRQ-C, 300 μM PI(3,4,5)P3, 100 μM inhibitor
Procedure: Six PTPRQ inhibitors identified under the above reaction conditions were further investigated using PI(3,4,5)P3 as the substrate (Cayman Chemical). The enzymatic activity of PTPRQ was measured in 80 μL reaction mixture containing 50 mM Tris–HCl (pH 6.0), 10 mM dithiothreitol, 300 μM PI(3,4,5)P3, 100 μM inhibitor, and 1.5 μM of the purified catalytic domain of PTPRQ. The mixture was incubated for 60 minutes at 310 K, and the enzymatic reaction was stopped by the addition of 20 μL of malachite green/ammonium molybdate reagent (Bioassay systems). The absorbance was measured at 650 nm using a plate reader.

[3] = target: T2, PTP receptor type O (PTPRO) (Homo sapiens, UniProt Q16827); test: Selectivity inhibition assay against PTPRO; conditions: read-out: % inhibition at 100 μM for PTPRO
T2 sequence (Q16827 30-1216): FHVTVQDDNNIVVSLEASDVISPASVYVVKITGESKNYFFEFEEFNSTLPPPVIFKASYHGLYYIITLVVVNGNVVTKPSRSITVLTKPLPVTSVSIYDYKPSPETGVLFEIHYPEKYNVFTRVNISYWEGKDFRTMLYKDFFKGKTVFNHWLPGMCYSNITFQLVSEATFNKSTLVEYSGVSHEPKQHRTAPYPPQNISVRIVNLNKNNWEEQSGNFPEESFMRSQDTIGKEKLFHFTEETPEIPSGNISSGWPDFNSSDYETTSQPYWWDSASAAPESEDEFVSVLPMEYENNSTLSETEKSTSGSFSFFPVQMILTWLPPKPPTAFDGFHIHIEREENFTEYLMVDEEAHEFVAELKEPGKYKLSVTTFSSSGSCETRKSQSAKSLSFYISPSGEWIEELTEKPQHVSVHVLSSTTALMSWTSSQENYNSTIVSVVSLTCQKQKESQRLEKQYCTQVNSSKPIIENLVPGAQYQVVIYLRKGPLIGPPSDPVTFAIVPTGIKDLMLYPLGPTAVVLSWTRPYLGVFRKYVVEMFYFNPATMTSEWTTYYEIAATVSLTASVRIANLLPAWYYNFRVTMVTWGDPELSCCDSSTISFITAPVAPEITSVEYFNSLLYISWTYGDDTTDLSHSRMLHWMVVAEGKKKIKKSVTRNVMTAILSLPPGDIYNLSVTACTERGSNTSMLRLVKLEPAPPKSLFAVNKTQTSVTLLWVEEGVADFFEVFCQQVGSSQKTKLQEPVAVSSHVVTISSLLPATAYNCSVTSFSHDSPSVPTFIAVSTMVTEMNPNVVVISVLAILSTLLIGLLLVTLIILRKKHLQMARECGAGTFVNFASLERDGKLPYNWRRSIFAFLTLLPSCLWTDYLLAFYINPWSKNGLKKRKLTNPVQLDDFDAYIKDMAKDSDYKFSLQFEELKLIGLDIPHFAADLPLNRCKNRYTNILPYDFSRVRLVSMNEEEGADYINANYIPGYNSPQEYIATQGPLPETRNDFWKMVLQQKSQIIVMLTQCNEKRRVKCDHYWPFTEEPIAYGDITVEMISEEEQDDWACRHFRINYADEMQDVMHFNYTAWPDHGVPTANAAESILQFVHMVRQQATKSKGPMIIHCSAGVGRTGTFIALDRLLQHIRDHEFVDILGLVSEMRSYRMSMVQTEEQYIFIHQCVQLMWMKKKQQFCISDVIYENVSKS
Procedure: Because the selectivity has been one of the most important issues in the development of phosphatase inhibitors, we compared the inhibitory activities of 1–6 for PTPRQ to those for its homologous protein, PTP receptor type O (PTPRO). These inhibition assays for selectivity were done in duplicates at the inhibitor concentration of 100 μM. […] The simultaneous inhibitions of PTPRQ and PTPRO by 1–6 are actually not surprising because they share a highly conserved catalytic module. To obtain the specific inhibitors for PTPRQ, therefore, it seems that some chemical groups should be added to 1–6 in such a way that the resulting derivatives can be stabilized not only in the active site but also in other peripheral binding pockets.

[4] = pNPP 5 mM substrate, 1.5 μM PTPRQ-C, pH 6.0, 60 minutes, read-out: IC50 against PTPRQ

Question: How did the inhibition at 100 µM [1] turn out when `O=C1NC(=S)S/C1=C\c1cn(-c2ccccc2)nc1-c1ccccc1` [Compound 2] was run?
Answer: 57.7 ± 0.4%

Question: And the IC50 [1, 4]?
Answer: 85.7 µM

Question: And the “inhibitory activity against the hydrolysis of PI(3,4,5)P3 by PTPRQ” value [2]?
Answer: significant inhibitory activity

Question: What about the inhibition at 100 µM ([3]; inhibitor 100 μM, duplicates) of the same molecule?
Answer: 94.2 ± 1.5%

Question: Which results are given for `COC(=O)c1cccc(-c2ccc(/C=C3\C(=O)N(c4cccc(C(=O)O)c4)N=C3C)o2)c1` [Compound 6]?
Answer: inhibition at 100 µM [1]: 57 ± 2.1%; IC50 [1, 4]: 73.1 µM; inhibitory activity against the hydrolysis of PI(3,4,5)P3 by PTPRQ [2]: effect of reducing PTPRQ activity; inhibition at 100 µM ([3]; inhibitor 100 μM, duplicates): 81.2 ± 0.9%

Question: `CN1C(=O)/C(=C/c2ccc(OCc3cccc([N+](=O)[O-])c3)cc2)S/C1=N/c1cccc(C(=O)O)c1` [Compound 3] was tested. Which inhibition at 100 µM [1] did it give?
Answer: 50.9 ± 2.2%

Question: And the IC50 [1, 4]?
Answer: 63.8 µM

Question: And the “inhibitory activity against the hydrolysis of PI(3,4,5)P3 by PTPRQ” value [2]?
Answer: effect of reducing PTPRQ activity

Question: What about the inhibition at 100 µM ([3]; inhibitor 100 μM, duplicates) of the same molecule?
Answer: 48.7 ± 2.1%

Question: `COc1cccc(-c2nn(-c3ccccc3)cc2/C=C2\SC(=S)N(CCC(=O)O)C2=O)c1` [Compound 4] was tested. Which inhibition at 100 µM [1] did it give?
Answer: 82.6 ± 0.2%

Question: And the IC50 [1, 4]?
Answer: 44.8 µM

Question: What about the inhibition at 100 µM ([3]; inhibitor 100 μM, duplicates) of the same molecule?
Answer: 95 ± 3.5%

Question: `O=C(O)CCN1C(=O)/C(=C\c2cccc(Oc3ccccc3)c2)SC1=S` [Compound 5] was tested. Which inhibition at 100 µM [1] did it give?
Answer: 62.5 ± 1.6%

Question: And the IC50 [1, 4]?
Answer: 65.3 µM

Question: What about the inhibition at 100 µM ([3]; inhibitor 100 μM, duplicates) of the same molecule?
Answer: 95 ± 0.8%

Question: What does the source list for `CCOC(=O)Cn1cc(/C=C2/C(=O)NC(=O)N(c3cc(C)cc(C)c3)C2=O)c2ccccc21` [Compound 1]?
Answer: IC50 [1]: 29.9 µM; inhibition at 100 µM [1]: 71.1 ± 0.8%; inhibitory activity against the hydrolysis of PI(3,4,5)P3 by PTPRQ [2]: significant inhibitory activity; inhibition at 100 µM [3]: 94.4 ± 0.5%
